{"source": "patent US20180296523A1", "about": "“USE OF POLYMETHOXYLATED FLAVONES TO AMELIORATE CIRCADIAN RHYTHM DISORDERS” (THE BOARD OF REGENTS OF THE UNIVERSITY OF TEXAS SY, priority 2017, published 2018)", "key": {"[1]": {"settings": "other studies (Kumar et al., 2012; Singh et al., 2011); cited from earlier work"}, "[2]": {"system": "db/db and db/db Clock^Δ19/Δ19 mice", "assay": "db/db diabetic mice and db/db Clock^Δ19/Δ19 double-mutant mice", "type": "in vivo, mouse", "experimental": "Weekly body weight was monitored in different treatment mice for 10 weeks. Body mass composition was measured at the end of experiments using a minispec mqNMR spectrometer (Bruker Optics, Texas) (Garcia et al., 2013). A control group of mice were fed with regular chow diet (Purina 5001) in parallel with the two treatment groups in HFD. For db/db and db/db Clock^Δ19/Δ19 mice, male mice at 6-8 weeks of age were group-housed (2-3/cage) and maintained on regular chow diets. Mice were subjected to oral gavage with either DMSO or NOB as described above.\nSerum samples were obtained at ZT2 from treated mice as previously described (Jeong et al., 2015). Hepatic triglyceride and cholesterol were extracted as previously described (Liu et al., 2012). The triglyceride and cholesterol levels in liver and serum were assessed by Serum Triglyceride Determination Kit (Sigma) and Cholesterol Assay Kit (Cayman), respectively. The assay plates were read by a TECAN M200 instrument (Tecan) following the manufacturer's instructions.\nGlucose tolerance test (GTT) and insulin tolerance test (ITT) were performed largely as described (He et al., 2015; Jeong et al., 2015). Briefly, after overnight and 5-hr fasting, GTT and ITT were conducted at ZT2 and ZT8 respectively. Glucose levels were measured from tail blood before and 15, 30, 60, or 120 min after injection of either 1 g/kg glucose or 0.75 U/kg insulin (Sigma) at ZT2 and ZT8 respectively by using the ONETOUCH UltraMini blood glucose monitoring system (LifeScan). Serum insulin levels were measured with the Rat/Mouse Insulin Elisa kit (Millipore) according to the manufacturer's instructions. The plasma samples were collected at ZT2 as described above for lipid assays."}, "[3]": {"system": "SCN explants from PER2::Luc WT reporter mice", "assay": "PER2::Luc reporter rhythms in SCN explants", "type": "cell-based, mouse", "settings": "listed as NOB", "experimental": "The chemical screen for circadian clock modulators was conducted at the Chemical Genomics Core facility at the UTHSC-H. The in-house chemical library screened consists of compounds from NIH Clinical Collection, NCI collection and Microsource Spectrum Collection. The screening was conducted largely based on the protocol previously described (Chen et al., 2012). Briefly, 15,000 immortalized fibroblast cells from Clock^Δ19/+ heterozygous mice expressing the PER2::Luc bioluminescence reporter were plated into each well of 96-well plates, and incubated for 3-4 d to allow growth to confluency. Cells were then incubated with 5 μM forskolin for 1-2 h followed by the addition of chemical compounds to the plates with robotic arms (Beckman), and then subjected to continuous monitoring over several days in a temperature-controlled EnVision microplate reader (Perkin Elmer). Data analysis was carried out by using the MultiCycle software (Actimetrics) for measurement of period, phase, and amplitude. […] NOB and a structurally related analog Naringin (NAR) were re-ordered from commercial sources including Sigma and GenDEPOT and dose response validation was conducted using PER2::LucSV reporter fibroblast cells which express stronger bioluminescence signals and thus allow precise measurements of circadian clock effects of compounds (Chen et al., 2012). […]"}, "[4]": {"system": "Bmal1 promoter with RORα/γ knockdown", "assay": "Bmal1 promoter-driven luciferase reporter in U2OS cells", "type": "cell-based"}, "[5]": {"system": "PER2::Luc Clock^Δ19/Δ19 fibroblast cells", "assay": "Reporter rhythm in homozygous Clock^Δ19/Δ19 reporter cells", "type": "cell-based, mouse", "settings": "clock-disrupted homozygous Clock^Δ19/Δ19 cells"}, "[6]": {"system": "core clock genes in PER2::LucSV cells", "assay": "Real-time qPCR and Western blot of clock genes in PER2::LucSV cells", "type": "cell-based, mouse", "experimental": "For qPCR analysis, cells were split into 6-well plates at an initial density of 3×10^5 cells and incubated for 2-4 days before synchronization (5 μM Fsk or 100 nM Dex) followed by compound treatment. RNA samples were prepared by using PureXtract RNAsol for cDNA synthesis and real-time PCR (GenDEPOT) was performed with a MaxPro3000 Thermocycler (Agilent). qPCR primers used are listed in the table shown in Example 4. Whole cell lysates from cells similarly grown and treated in 60 mm dishes and tissue extracts were prepared as described (Yoo et al., 2013) and subjected to Western blot analysis (GenDEPOT). Antibodies for REV-ERBα (Pierce and Cell Signaling), PER1 (Lee et al., 2001) and other clock proteins (Yoo et al., 2013) were used."}, "[7]": {"assay": "Pharmacokinetic study in mice (LC-MS/MS)", "type": "in vivo", "settings": "mouse, oral gavage 200 mg/kg; for exposure in plasma/serum, brain and liver: single dose, 200 mg/kg", "experimental": "For diet-induced obesity, male mice at 6 weeks of age were fed with HFD (D12492, Research Diets) until the end of the experimental protocol. The mice were treated with either vehicle (DMSO) or NOB (200 mg/kg body weight) via oral gavage every other day, in the time window of ZT8-10, throughout the experimental period. An every-other-day dosing regimen was chosen at the indicated level based on several reasons. First, previous in vivo studies have used similar overall amounts for mouse treatment (100-125 mg/kg/day) (Lee et al., 2013; Li et al., 2006). The oral gavage procedure was done in late afternoon (ZT8-10) prior to the start of their active phase, reasoning that this may coincide with the time-window adopted by previous studies. Second, daily dosing was not chosen to avoid entraining the experimental mice with the procedure per se as an artificial zeitgeber. Furthermore, pilot pharmacokinetic (PK) assays were done under a single-dose condition (Fig. S7). […] Therefore, it was reasoned that every-other day dosing helps avoid any incomplete daily clearance over the chronic experimental period (10 weeks). NOB was administered orally at ZT8 at a dose of 200 mg/kg in 0.25% sodium Carboxy Methyl Cellulose (CMC) suspension. Three mice per time point were sacrificed at 0.0, 1.0, 2.0, 4.0, 8.0 and 24.0 hr after oral gavage. NOB in plasma, brain and liver was determined by LC-MS/MS (API 4000: EQ-RS-MS-006)."}}, "note": "Entries after “also recorded” stand apart in the source; their conditions may differ.", "data": [{"smiles": "COc1ccc(-c2cc(=O)c3c(OC)c(OC)c(OC)c(OC)c3o2)cc1OC", "note": "[nobiletin]", "values": [{"measurement": "NOB levels 24 hr after administration", "setting": "[1]", "value": "able to measure NOB levels 24 hr after administration"}, {"measurement": "overall metabolic response to treatment", "setting": "[2]; db/db Clock^Δ19/Δ19 double-mutant mice, in contrast to db/db", "value": "markedly attenuated response"}, {"measurement": "circulating insulin levels", "setting": "[2]; db/db Clock^Δ19/Δ19 mutant mice", "value": "strongly reduced circulating insulin levels"}, {"measurement": "circulating insulin levels", "setting": "[2]; db/db mice", "value": "strongly reduced circulating insulin levels"}, {"measurement": "fasting glucose levels", "setting": "[2]; db/db mice", "value": "lowered fasting glucose levels"}, {"measurement": "glucose tolerance (GTT)", "setting": "[2]; db/db mice", "value": "improved"}, {"measurement": "insulin sensitivity (ITT)", "setting": "[2]; db/db mice", "value": "improved"}, {"measurement": "serum total cholesterol (TC)", "setting": "[2]; db/db mice", "value": "reduced"}, {"measurement": "serum total triglyceride (TG)", "setting": "[2]; db/db mice", "value": "reduced"}, {"measurement": "body weight gain", "setting": "[2]; db/db mice, RC, 10 weeks", "value": "strongly blunted body weight gain"}, {"measurement": "reporter rhythms in SCN explants", "setting": "[3]", "value": "did not enhance reporter rhythms"}, {"measurement": "induction of Bmal1 reporter after knockdown of RORα/γ by siRNAs", "setting": "[4]", "value": "abrogated the nobiletin-mediated induction"}, {"measurement": "restoring reporter rhythm", "setting": "[5]", "value": "ineffective in restoring the rhythm; also recorded: not able to rescue reporter rhythms"}, {"measurement": "CRY1 protein abundance", "setting": "[6]", "value": "slight trend of greater protein abundance"}, {"measurement": "CRY1 transcript level", "setting": "[6]", "value": "markedly reduced transcript level"}, {"measurement": "Pert transcript levels", "setting": "[6]", "value": "moderately altered and reduced at CT20"}, {"measurement": "expression of other core clock genes", "setting": "[6]", "value": "altered"}, {"measurement": "PER2 proteins", "setting": "[6]; Western blot", "value": "accumulate to greater levels"}, {"measurement": "NOB level 8 hr after single-dose administration", "setting": "[7]", "value": "undetectable"}, {"measurement": "exposure in plasma/serum, brain and liver", "setting": "[7]", "value": "significant brain and systemic exposure"}, {"measurement": "exposure in plasma/serum, brain and liver", "setting": "[7]; listed as NOB", "value": "significant exposure in serum, brain and particularly liver"}]}]}
